Measurements published in patent publication US20220324865A1 (Bayer Aktiengesellschaft, priority 2018, published 2022).
Structures can show the parent of a compound that is named as a salt.

Target: T1, human EP3 receptor (Homo sapiens, UniProt P43115)
T1 construct: expressed in transfected cells; host or cells: CHO K1 (Chinese Hamster Ovary), stably co-transfected with Galpha16 and mitochondrial clytin
T1 sequence (P43115 1-390): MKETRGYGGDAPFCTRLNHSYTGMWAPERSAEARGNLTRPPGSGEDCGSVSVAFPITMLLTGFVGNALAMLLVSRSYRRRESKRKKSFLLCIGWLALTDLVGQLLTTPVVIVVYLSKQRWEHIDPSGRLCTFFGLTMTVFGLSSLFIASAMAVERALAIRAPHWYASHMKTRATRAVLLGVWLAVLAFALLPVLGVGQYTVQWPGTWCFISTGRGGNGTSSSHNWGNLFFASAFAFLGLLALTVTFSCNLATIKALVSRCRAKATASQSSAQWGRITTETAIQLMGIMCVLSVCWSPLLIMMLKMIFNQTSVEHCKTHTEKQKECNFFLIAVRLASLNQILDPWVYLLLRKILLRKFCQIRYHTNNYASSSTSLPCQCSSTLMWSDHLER
Test: Cellular in vitro assay for determining EP3 receptor activity (human EP3 cell line, sulprostone-stimulated calcium luminescence)
Format: cell-based
Conditions: CHO cells expressing human EP3 and mitochondrial Clytin; antagonist mode, sulprostone at EC50; read-out: EP3 CHO mtCLY ANTAG IC50
In short: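 CHO K1 cells stably expressing human EP3 with Gα16 and mitochondrial Clytin, loaded overnight with coelenterazine. Compounds added 10 min before sulprostone at its EC50; antagonism read immediately as reduced calcium-driven luminescence, quadruplicate points.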

Row | Structure (SMILES) | IC50
1 | Cc1cc(-c2cn3nc(C(=O)NCC(O)(C(F)(F)F)C(F)(F)F)c(C4CC4)c3c(=O)[nH]2)ccc1F [6-658] | 7 nM
2 | O=C(N[C@H](CN1CCOCC1)c1ccccc1)c1cc2c(=O)[nH]c(-c3ccc4ccccc4c3)cn2n1 [Example 1-7, N-[(1S)-2-(Morpholin-4-yl)-1-phenylethyl]-6-(naphthalen-2-yl)-4-oxo-4,5-dihydropyrazolo[1,5-a]-pyrazine-2-carboxamide formic acid salt] | 1.7 nM
3 | CCN(CCO)CC(NC(=O)c1nn2cc(-c3ccc4ccccc4c3)[nH]c(=O)c2c1C1CC1)c1ccccc1 (centres unmarked) [Example 1-26, 3-Cyclopropyl-N-[2-[ethyl(2-hydroxyethyl)amino]-1-phenylethyl]-6-(2-naphthyl)-4-oxo-5H-pyrazolo[1,5-a]pyrazine-2-carboxamide] | 1.4 nM
4 | C[C@@H](NC(=O)c1cc2c(=O)[nH]c(-c3ccc4cccc(F)c4c3)cn2n1)c1ccc(F)cc1 [6-38] | 1.45 nM
5 | COc1ccc(C(C)NC(=O)c2cc3c(=O)[nH]c(-c4ccc5ccccc5c4)cn3n2)cn1 (centres unmarked) [Example 1-104, N-[1-(6-Methompyridin-3-yl)ethyl]-6-(2-naphthyl)-4-oxo-5H-pyrazolo[1,5-a]pyrazine-2-carboxamide] | 2.26 nM
6 | CC[C@@H](C)NC(=O)c1nn2cc(-c3cnc4cccc(C)c4c3)[nH]c(=O)c2c1C(F)(F)F [6-547] | 7.8 nM
7 | Cc1ccc(-c2cn3nc(C(=O)N[C@@H](c4ccc(F)cc4)C(F)(F)CO)c(C4CC4)c3c(=O)[nH]2)cc1F [6-375] | 1.07 nM
8 | COc1ccc([C@@H](C)NC(=O)c2nn3cc(-c4ccc5ccccc5c4)[nH]c(=O)c3c2C(F)(F)F)cn1 [Example 1-79, N-[(1R)-1-(6-Methoxpyridin-3-yl)ethyl]-6-(naphthalen-2-yl)-4-oxo-3-(trifluoromethyl)-4,5-dihydro-pyrazolo[1,5-a]pyrazine-2-carboxamide] | 0.6 nM
9 | Cc1ccc(-c2cn3nc(C(=O)N[C@@H](c4ccc(F)cc4)C(C)(C)O)c(C)c3c(=O)[nH]2)nc1C [6-634] | 3.7 nM
10 | Cc1cc(-c2cn3nc(C(=O)N[C@@H](c4ccc(F)cc4)C(F)(F)CO)c(C4CCC4)c3c(=O)[nH]2)ccc1Cl [6-619] | 1.15 nM
11 | Cc1ccc(-c2cn3nc(C(=O)N[C@H](C)CO)c(C4CCC4)c3c(=O)[nH]2)cc1F [6-575] | 1.95 nM
12 | Cc1cccc2ncc(-c3cn4nc(C(=O)Nc5ccnn5C(C)C)c(C(C)C)c4c(=O)[nH]3)cc12 [Example 4-15, 6-(5-Methylquinolin-3-yl)-4-oxo-3-(propan-2-yl)-N-[1-(propan-2-yl)-1H-pyrazol-5-yl]-4,5-dihydropyrazolo[1,5-a]pyrazine-2-carboxamide] | 2.9 nM
13 | CC(NC(=O)c1cc2c(=O)[nH]c(-c3ccc4ccccc4c3)cn2n1)c1ccc2c(c1)OCCO2 (centres unmarked) [Example 2-35, N-[1-(2,3-Dihydro-1,4-benzodioxin-6-yl)ethyl]-6-(2-naphthyl)-4-oxo-4,5-dihydropyrazolo[1,5-a]pyrazine-2-carboxamide] | 5.3 nM
14 | Cc1ccc(-c2cn3nc(C(=O)NC(C)CN4CCOCC4)c(C4CC4)c3c(=O)[nH]2)cc1C (racemic) [6-450] | 12 nM
15 | Cc1cc(-c2cn3nc(C(=O)NCC(O)C(F)(F)F)c(C4CC4)c3c(=O)[nH]2)ccc1Cl (racemic) [6-312] | 1.3 nM
16 | Cc1cc(-c2cn3nc(C(=O)N[C@H](CN4CCC(F)(F)C4)c4ccc(F)cc4)c(C4CC4)c3c(=O)[nH]2)ccc1Cl [6-339] | 7.15 nM
17 | [N-]=[N+]=NC[C@H](NC(=O)c1cc2c(=O)[nH]c(-c3ccc4ccccc4c3)cn2n1)c1ccccc1 [6-59] | 4.2 nM
18 | O=C(NCCc1ccccc1)c1cc2c(=O)[nH]c(-c3ccc4ccccc4c3)cn2n1 [6-14] | 8.25 nM
19 | CCn1cnnc1CNC(=O)c1nn2cc(-c3cnc4cccc(C)c4c3)[nH]c(=O)c2c1C(C)C [Example 4-20, N-[(4-Ethyl-4H-1,2,4-triazol-3-yl)methyl]-6-(5-methylquinolin-3-yl)-4-oxo-3-(propan-2-yl)-4,5-dihydropyrazolo[1,5-a]pyrazine-2-carboxamide] | 2.9 nM
20 | O=C(NCC(O)C(F)(F)F)c1nn2cc(-c3ccc4c(c3)OCCO4)[nH]c(=O)c2c1C1CC1 (racemic) [6-465] | 1.75 nM
21 | CCCc1c(C(=O)N[C@H](C)c2ccc(F)cc2)nn2cc(-c3ccc(C)c(C)c3)[nH]c(=O)c12 [6-614] | 0.82 nM

More lines, in order of falling IC50, values ahead:

Row | IC50 | Structure (SMILES)
22 | 9.45 nM | Cc1c(C(=O)N[C@@H](CO)c2ccccc2)nn2c(C)c(-c3ccc4ccccc4c3)[nH]c(=O)c12 [Example 3-71, N-[(1R)-2-Hydroxy-1-phenylethyl]-3,7-dimethyl-6-(naphthalen-2-yl)-4-oxo-4,5-dihydropyrazolo[1,5-a]pyrazine-2-carboxamide]
23 | 8.53 nM | CN1CCC(NC(=O)c2nn3cc(-c4ccc5ccccc5c4)[nH]c(=O)c3c2C(F)(F)F)(c2ccc(F)cc2)C1 (racemic) [6-510]
24 | 5.05 nM | Cc1cc(-c2cn3nc(C(=O)NC(c4ccc(F)cc4)C(C)(C)O)c(C4CC4)c3c(=O)[nH]2)ccc1C(F)(F)F (racemic) [6-133]
25 | 4.25 nM | Cc1c(C(=O)NC2(c3ccc(F)cc3)CN(C)C2)nn2cc(-c3ccc4ccccc4c3)[nH]c(=O)c12 [Example 1-35, N-[3-(4-Fluorophenyl)-1-methylazetidin-3-yl]-3-methyl-6-(naphthalen-2-yl)-4-oxo-4,5-dihydropyrazolo[1,5-a]pyrazine-2-carboxamide hydrochloride]
26 | 3.3 nM | CN1CC(NC(=O)c2nn3cc(-c4ccc(Cl)cc4)[nH]c(=O)c3c2C2CC2)(c2ccc(F)cc2)C1 [6-673]
27 | 2.85 nM | Cc1c(C(=O)NC2(c3ccc(F)cc3)CC2)nn2cc(-c3ccc4ccccc4c3)[nH]c(=O)c12 [6-71]
28 | 2.5 nM | Cc1cccc2ncc(-c3cn4nc(C(=O)N[C@H](C)c5ccc(F)cc5)cc4c(=O)[nH]3)cc12 [6-64]
29 | 2.35 nM | Cc1ccc(-c2cn3nc(C(=O)N[C@H]4c5ccccc5C[C@H]4O)c(C(F)(F)F)c3c(=O)[nH]2)cc1Cl [6-185]
30 | 1.85 nM | CC(NC(=O)c1nn2cc(-c3ccc4ccccc4c3)[nH]c(=O)c2c1C#N)c1ccccc1OC(F)F (centres unmarked) [Example 3-60, 3-Cyano-N-[1-[2-(difluoromethoxy)phenyl]ethyl]-6-(2-naphthyl)-4-oxo-5H-pyrazolo[1,5-a]pyrazine-2-carboxamide]
31 | 1.73 nM | O=C(N[C@@H](c1ccc(F)cc1)C(F)(F)CO)c1nn2cc(-c3ccc(Cl)c(F)c3)[nH]c(=O)c2c1C1CC1 [6-95]
32 | 1.63 nM | O=C(N[C@@H](c1ccc(F)cc1)C(F)(F)CO)c1nn2cc(-c3cc(F)c(Cl)c(F)c3)[nH]c(=O)c2c1C1CC1 [6-474]
33 | 1.6 nM | COC[C@@H](NC(=O)c1cc2c(=O)[nH]c(-c3ccc4c(c3)OCCO4)cn2n1)c1ccccc1 [6-49]
34 | 1.5 nM | Cc1cc(-c2cn3nc(C(=O)N[C@H](C)C4CC4)c(C(C)C)c3c(=O)[nH]2)ccc1Cl [6-609]
35 | 1.45 nM | Cc1ccc(-c2cn3nc(C(=O)NC(CN4CCOCC4)c4ccc(F)cc4)c(C4CC4)c3c(=O)[nH]2)cc1C (racemic) [6-441]
36 | 1.3 nM | Cc1ccc(-c2cn3nc(C(=O)N[C@@H](C)C4CC4)c(C4CC4)c3c(=O)[nH]2)cc1F [6-380]
37 | 1.18 nM | O=C(N[C@H](CO)c1ccccc1)c1nn2cc(-c3ccc4ccccc4c3)[nH]c(=O)c2c1C(F)(F)F [Example 1-77, N-[(1S)-2-Hydroxy-1-phenylethyl]-6-(naphthalen-2-yl)-4-oxo-3-(trifluoromethyl)-4,5-dihydropyrazolo[1,5-a]pyrazine-2-carboxamide]
38 | 1.14 nM | COc1cccc(CNC(=O)c2cc3c(=O)[nH]c(-c4ccc5ccccc5c4)cn3n2)c1 [Example 2-23, N-(3-Methoxybenzyl)-6-(2-naphthyl)-4-oxo-4,5-dihydropyrazolo[1,5-a]pyrazine-2-carboxamide]
39 | 1.09 nM | COCc1c(C(=O)N[C@H](C)c2ccc(F)cc2)nn2cc(-c3ccc4ccccc4c3)[nH]c(=O)c12 [Example 1-20, N-[(1R)-1-(4-Fluorophenyl)ethyl]-3-(methoxymethyl)-6-(naphthalen-2-yl)-4-oxo-4,5-dihydropyrazolo[1,5-a]pyrazine-2-carboxamide]
40 | 1.03 nM | Cc1ccc(-c2cn3nc(C(=O)NC(c4ccccc4)C(O)C(F)(F)F)c(C)c3c(=O)[nH]2)cc1F (centres unmarked) [6-407]
41 | 1.01 nM | O=C(NC(c1ccccc1)C(F)F)c1cc2c(=O)[nH]c(-c3ccc4c(c3F)OCCO4)cn2n1 (centres unmarked) [Example 1-110, N-(2,2-Difluoro-1-phenylethyl)-6-(5-fluoro-2,3-dihydro-1,4-benzodioxin-6-yl)-4-oxo-4,5-dihydro-pyrazolo[1,5-a]pyrazine-2-carboxamide]
42 | 1.01 nM | COc1cc(-c2cn3nc(C(=O)N[C@H](C)C4CC4)c(C4CC4)c3c(=O)[nH]2)ccc1Cl [6-483]
43 | 0.92 nM | COC[C@@H](NC(=O)c1nn2cc(-c3ccc(C)c(C)c3)[nH]c(=O)c2c1C#N)c1ccccc1 [Example 1-74, 3-Cyano-6-(3,4-dimethylphenyl)-N-[(1S)-2-methoxy-1-phenylethyl]-4-oxo-4,5-dihydropyrazolo-[1,5-a]pyrazine-2-carboxamide]
44 | 0.523 nM | Cc1ccc(-c2cn3nc(C(=O)N[C@H](CCO)c4ccc(F)cc4)c(C4CC4)c3c(=O)[nH]2)cc1C [Example 1-83, 3-Cyclopropyl-6-(3,4-dimethylphenyl)-N-[(1R)-1-(4-fluorophenyl)-3-hydroxpropyl]-4-oxo-4,5-dihydropyrazolo[1,5-a]pyrazine-2-carboxamide]
